Assay results from US11464749B2, “Bismuth-thiol compositions and methods of use” (Microbion Corporation, priority 2018, dated 2022).
“Also recorded” adds a separate entry of the source. Like-named read-outs stand apart in the source and are kept apart here.

How the values were obtained:
C. albicans = assay: Broth microdilution MIC, yeast (Example 11); format: cell-based
Neisseria gonorrhoeae = assay: Agar dilution MIC (Example 11); format: cell-based
A. flavus = assay: Broth microdilution antifungal susceptibility (Example 13); format: cell-based; details: Aspergillus flavus
Candida albicans = assay: as above; format: cell-based; details: Candida albicans
[1] = tested on: B. cenocepacia (B cepacia complex); assay: MIC against CF bacterial strains (Example 5); details: Burkholderia cenocepacia
[2] = tested on: MABSC / M. abscessus biofilms; assay: Activity against CF-isolate biofilms; format: cell-based; details: AMT0130-8 (MABSC CF-isolate)
[3] = Particle size distribution of exposure aerosols (In-Tox Mercer Impactor); details: rat efficacy study exposure atmospheres
[4] = tested on: fully differentiated human airway epithelium (MUCILAIR™); assay: Acute toxicity on […] (LDH release, TEER, morphology); format: cell-based
Description: Controlled in vitro evaluation of BisEDT, with respect to potential cytotoxicity on fully differentiated human airway epithelium was carried out. Both solubilized and solid (powder/particulate) forms of BisEDT were evaluated for cytotoxicity by Epithelix, a contract research organization (CRO) specializing in this form of cytotoxicity evaluation utilizing a proprietary, in vitro fully differentiated human airway epithelium test system ([…]™) The […]™ system facilitated evaluation of cytotoxicity through both LDH release (from the culture medium side) and trans-epithelial electrical resistance (TEER) from the apical/air-exposed side as well as pre- and post-exposure microscopic examination for morphological changes (FIG. 13).
The assay system used in this study is Epithelix's proprietary technology […]™ […]™ is a fully differentiated and ready-to-use 3D model of human airway epithelium, constituted with primary human epithelial cells freshly isolated from nasal, tracheal or bronchial biopsies. […]™ (FIG. 24), is not only morphologically and functionally differentiated, but can also be maintained in a homeostatic state for a long period of time (Huang et al., 2009).
[…]™ is composed of basal cells, ciliated cells and mucus cells. The proportion of these various cell types is preserved compared to what one observes in vivo (Huang et al., 2011). Moreover the epithelia are started from de-differentiated cells. The cells undergo a progressive differentiation with time. After 45 days of culture, the epithelia are fully ciliated, secret mucus and are electrically tight (TEER>200 Ω.cm^2). The activity of the main epithelial ionic channels, such as CFTR, EnaC, Na/K ATPase, is preserved and the epithelia is shown to respond in a regulated and vectorial manner to the pro-inflammatory stimulus, TNF-α (Huang et al., 2011). A large panel of cytokines, chemokines and metalloproteinases has been detected in […]™ (e.g. IL-8, IL-6, GM-CSF, MMP-9, GRO-α).
BisEDT (MB-1-B3) was applied on the apical surface of […]™ during 1, 8, 24 and 48 hours (FIG. 13). The effect of 6 concentrations was studied: 0.001, 0.01, 0.1, 1, 10 and 30 μM. […] 30 μl solution at the selected concentration was applied on the apical surface of […]™. The negative control corresponds to the vehicle solution (0 μM) and untreated cultures. The positive control corresponds to 50 μl to 10% Triton X-100 diluted in a buffered saline solution. The study was run in triplicates.
During the study, inserts were maintained in a CO2 incubator (37° C., 5% CO2, 100% humidity). The following end-points were determined: • Tissue integrity monitoring: Trans-Epithelial Electrical Resistance (TEER) measurement (quantitative) at D0, D1 and D2. • Cytotoxicity monitoring: LDH test (quantitative) at D0, D1 and D2. • Morphology: cellular and tissue integrity examined under contrast microscope at D0, D1 and D2.
Three days before the experiment, the following quality controls were performed on each epithelium: • Washing: inserts were washed with 200 μl of […]™ culture medium. Washing removes accumulated mucus on the tissue surface which may interfere with the test. • Trans-Epithelial Electrical Resistance (TEER): TEER was measured to verify that all the selected inserts had tight epithelial barriers and the tissue itself was not disrupted prior to application of the test material. • Tissue morphology: each insert was inspected under a conventional inverted microscope to ensure the quality of the epithelia and determine qualitatively that cilia motion was visible. The presence of mucus was detected by the refractive aspect of the apical surface. Results
Compound BisEDT was applied on the apical surface of […]™. The effect of 5 concentrations after 1, 8,24 and 48 hours exposure was studied: 0.033, 0.33, 3.33, 33.3, 333 μg/cm^2. […]

[5] = solid, 0.033 and 0.33 μg/cm^2, all tested time points
[6] = solution, all tested concentrations and time points

CC(S)C(C)S.[Bi] (stereo not shown) [BisBDT, bismuth-2,3-butanedithiol]
MIC (C. albicans; C. albicans MMX 7055, Sensitive, 48 hr): 2, 2 μg/mL | MIC (C. albicans; Candida albicans, 24 h): 2 µg/mL | MIC (C. albicans; Candida albicans, 48 h): 2 µg/mL | MIC (Neisseria gonorrhoeae; ATCC49226, N. gonorrhoeae MMX 683 (ATCC 49226), QC): 0.06 µg/mL | MIC (Neisseria gonorrhoeae; N. gonorrhoeae MMX 6757, CTX NS): 0.06 µg/mL | MIC (Neisseria gonorrhoeae; N. gonorrhoeae MMX 6791, CIP^R): 0.12 µg/mL | MIC (Neisseria gonorrhoeae; N. gonorrhoeae MMX 6792, CIP^R): 0.12 µg/mL | MIC (Neisseria gonorrhoeae; N. gonorrhoeae MMX 6793, CIP^R): 0.25 µg/mL | MIC (Neisseria gonorrhoeae; read-out: MIC values, QC isolate, ciprofloxacin-resistant, ceftriaxone non-susceptible isolates): 0.06 to 0.25 µg/mL | MIC (A. flavus; ATCC22546, A. flavus ATCC 22546, 24 hr, read-out: MIC0 24 hr): 1 µg/mL | MIC (A. flavus; ATCC22546, A. flavus ATCC 22546, 48 hr, read-out: MIC0 48 hr): 2 µg/mL | MIC (A. flavus; ATCC204304, A. flavus ATCC 204304, 24 hr, read-out: MIC0 24 hr): 4 µg/mL | MIC (A. flavus; ATCC204304, A. flavus ATCC 204304, 48 hr, read-out: MEC at 48 hr (MIC0 not observed)): 4 µg/mL | MIC (A. flavus; A. flavus MMX 7935, 24 hr, read-out: MIC0 24 hr): 8 µg/mL | MIC (A. flavus; A. flavus MMX 7935, 48 hr, read-out: MIC0 48 hr): 8 µg/mL | MIC (Candida albicans; 24 h, read-out: MIC0 (complete inhibition), isolate MMX 7053 (Susceptible), 24 hr): 1 µg/mL | MIC (Candida albicans; 24 h, read-out: MIC0 (complete inhibition), isolate MMX 7067 (FLU-R, VORI-R), 24 hr): 1 µg/mL | MIC (Candida albicans; 24 h, read-out: MIC0 (complete inhibition), isolate MMX 7430 (Susceptible), 24 hr): 0.5 µg/mL | MIC (Candida albicans; 24 h, read-out: MIC0 (complete inhibition), isolate MMX 7437 (FLU-I), 24 hr): 2 µg/mL | MIC (Candida albicans; 24 h, read-out: MIC0 (complete inhibition), isolate MMX 7445 (FLU-R, VORI-R), 24 hr): 2 µg/mL | MIC (Candida albicans; 24 h, read-out: MIC2 (50% inhibition)): 1 µg/mL | MIC (Candida albicans; 24 h, read-out: MIC2 (50% inhibition), isolate ATCC MYA-2732 (FLU-R, VORI-I), 24 hr): 1 µg/mL | MIC (Candida albicans; 24 h, read-out: MIC2 (50% inhibition), isolate MMX 7053 (Susceptible), 24 hr): 0.5 µg/mL | MIC (Candida albicans; 24 h, read-out: MIC2 (50% inhibition), isolate MMX 7067 (FLU-R, VORI-R), 24 hr): 0.5 µg/mL | MIC (Candida albicans; 24 h, read-out: MIC2 (50% inhibition), isolate MMX 7403 (Susceptible), 24 hr): 0.25 µg/mL | MIC (Candida albicans; 24 h, read-out: MIC2 (50% inhibition), isolate MMX 7424 (CASP-R, MICA-R), 24 hr): 1 µg/mL | MIC (Candida albicans; 24 h, read-out: MIC2 (50% inhibition), isolate MMX 7430 (Susceptible), 24 hr): 0.25 µg/mL | MIC (Candida albicans; 24 h, read-out: MIC2 (50% inhibition), isolate MMX 7445 (FLU-R, VORI-R), 24 hr): 1 µg/mL | MIC (Candida albicans; 24 h, read-out: MIC0 (complete inhibition)): 2 µg/mL | MIC (Candida albicans; ATCC90028, 24 h, read-out: MIC0 (complete inhibition), isolate ATCC 90028 (Susceptible), 24 hr): 2 µg/mL | MIC (Candida albicans; ATCC90028, 24 h, read-out: MIC2 (50% inhibition), isolate ATCC 90028 (Susceptible), 24 hr): 0.5 µg/mL | MIC (Candida albicans; ATCC204276, 24 h, read-out: MIC0 (complete inhibition), isolate ATCC 204276 (MICA-R), 24 hr): 1 µg/mL | MIC (Candida albicans; ATCC204276, read-out: MIC2 (50% inhibition), isolate ATCC 204276 (MICA-R), result after 48 hr incubation (insufficient growth at 24 hr)): 1 µg/mL | MIC [1]: 4 µg/mL | reduction in biofilm cell viability [2]: only very modest reductions

C1C[S][Bi]([S]CC[S][Bi]2[S]CC[S]2)[S]1 [BisEDT, bismuth-1,2-ethanedithiol]
MMAD of exposure aerosol [3]: 1.54 μm | toxic effects (morphology, LDH release, TEER), BisEDT in solution ([4]; 0.001-30 μM (30 uM = 20.83 ug/mL) apical, 1, 8, 24, 48 hours): no toxic effects were observed; also recorded: no local toxicity | toxic effects (morphology, LDH release, TEER), particulate BisEDT in dextran ([4]; lower two concentrations (0.033, 0.33 μg/cm^2), up to 48 hours): no toxic effects were observed | TEER (tissue integrity) ([4]; solid, 1 μg/cm^2, 8, 24 and 48H): Loss of tissue integrity | LDH release (cytotoxicity) ([4]; solid, 1 μg/cm^2, 8, 24 and 48 h): time- and dose-dependent cytotoxicity | LDH release (cytotoxicity) ([4]; solid, 1 μg/cm^2, 1 hour): No significant effect | TEER (tissue integrity) ([4]; solid, 1 μg/cm^2, 1 hour): no significant effect | Morphology after exposure ([4]; solid, 1 μg/cm^2, 1 hour and 8 hour): no important morphological changes were observed | Morphology after exposure ([4]; solid, 1 μg/cm^2, 24 h): epithelial cells on 2 inserts out of 3 were dead | Morphology after exposure ([4]; solid, 1 μg/cm^2, 48 h): epithelial cells on all 3 inserts were dead | Morphology after exposure ([4]; solid, 3.33 μg/cm^2, 24 and 48 h): Cells were rounded and opaque at the periphery of inserts | Morphology after exposure ([4]; solid, 0.033 and 0.33 μg/cm^2): No morphological modifications were observed | LDH release (cytotoxicity) [4, 5]: No significant effect | TEER (tissue integrity) [4, 5]: No significant effect | cytotoxicity (LDH increase, TEER reduction) ([4]; solid, 1 and 3.33 μg/cm^2, 24 h and 48 h): induces cytotoxicity | LDH release (cytotoxicity) ([4]; solid, 3.3, 33.3 and 333 μg/cm^2, beyond 1 hour): time and dose dependent increase in LDH release; also recorded: time and dose dependent, cytotoxicity | TEER (tissue integrity) ([4]; solid, 3.33, 33.3 and 333 μg/cm^2, 8, 24 and 48H exposure): Loss of tissue integrity | toxicity (LDH, TEER, morphology) ([4]; solid, 33.3, 333 μg/cm^2): strong toxicity | Morphology after exposure ([4]; solid, 33.3 and 333 μg/cm^2, 8, 24 and 48 h): Cells were rounded and opaque on the inserts | TEER (tissue integrity) ([4]; solid, all tested doses, 1 hour exposure): no significant effect | Morphology after exposure [4, 6]: No morphology changes were observed | TEER (tissue integrity) [4, 6]: didn't show significant effect | LDH release (cytotoxicity) ([4]; solution, all tested concentrations and time-points): not altered
